According to patent US20060057636A1 (priority 2002, published 2006):

Experiments:
Balb/C mice = conditions: in vivo, sc
NMRI mice = conditions: mouse, in vivo
recombinant bovine PrP = conditions: in vivo

Sequence | mean end-point titre, mouse no. 1 (Balb/C mice) | mean end-point titre, mouse no. 2 (Balb/C mice) | mean end-point titre, mouse no. 3 (Balb/C mice) | mean end-point titre, mouse no. 4 (Balb/C mice) | titres in NMRI mice compared with Balb/C (NMRI mice) | production of high-titered, PrP-reactive antibodies (recombinant bovine PrP)
CGGLGGYMLGSAMSRPLIH [PrP peptide 3] | 13.5000 | 13.500 | 13.500 | 40.500 |  | 
CGGRESQAYYQRGAS [PrP peptide 4] | 4.500 | 13.500 | 13.500 | 40.500 | the same or even higher titres | 
CGQGGTHGQWNKP [PrP peptide 1] | 40.500 | 40.500 | 40.500 | 40.500 | the same or even higher titres | 
CGQWNKPSKPKTN [PrP peptide 2] | 121.500 | 40.500 | 13.500 | 13.500 |  | 
CGSDYEDRY [PrP peptide 5] | 121.500 | 40.500 | 40.500 | 40.500 |  | all groups except the peptide 5 group
CTQYQRESQAYYQRG [PrP peptide 7] | 121.500 | 13.4500 | 40.500 | 40.500 |  | 
CYYRPVDQYS [PrP peptide 6] | 13.500 | 500 | 13.500 | 1.500 | the same or even higher titres | 
